Measured values taken from patent US10053485B2, “Cytotoxic agents that preferentially target leukemia inhibitory factor (LIF) for the treatment of malignancies and as new contraceptive agents” (Evestra, Inc., priority 2015, dated 2018).

Columns and labels:
CCRF-CEM = assay: NCI-60 screen, Leukemia panel; type: cell-based; conditions: Homo sapiens, 48 h
K-562 = assay: NCI-60 screen, Leukemia panel; type: cell-based; conditions: Homo sapiens, K562, 48 h
MOLT-4 = assay: NCI-60 screen, Leukemia panel; type: cell-based; conditions: Homo sapiens, MOLT-4, 48 h
RPMI-8226 = assay: NCI-60 screen, Leukemia panel; type: cell-based; conditions: Homo sapiens, RPMI-8226, 48 h
EKVX = assay: NCI-60 screen, Non-Small Cell Lung Cancer panel; type: cell-based; conditions: Homo sapiens, 48 h, read-out: GI50 (log10GI50) (converted)
HOP-62 = assay: NCI-60 screen, Non-Small Cell Lung Cancer panel; type: cell-based; conditions: Homo sapiens, HOP-62, 48 h, read-out: GI50 (log10GI50) (converted)
NCI-H522 = assay: NCI-60 screen, Non-Small Cell Lung Cancer panel; type: cell-based; conditions: Homo sapiens, NCI-H522, 48 h
SW-620 = assay: NCI-60 screen, Colon Cancer panel; type: cell-based; conditions: Homo sapiens, SW-620, 48 h
SF-295 = assay: NCI-60 screen, CNS Cancer panel; type: cell-based; conditions: Homo sapiens, SF-295, 48 h
MALME-3M = assay: NCI-60 screen, Melanoma panel; type: cell-based; conditions: Homo sapiens, 48 h
IGROV1 = assay: NCI-60 screen, Ovarian Cancer panel; type: cell-based; conditions: Homo sapiens, IGROV-1; IGROV1, 48 h, SRB; read-out: GI50 (log10GI50) (converted)
Protocol: Additional four, 10-fold or ½ log serial dilutions are made to provide a total of five drug concentrations plus control.
For adherent cells, the assay is terminated by the addition of cold TCA. Cells are fixed in situ by the gentle addition of 50 μl of cold 50% (w/v) TCA (final concentration, 10% TCA) and incubated for 60 minutes at 4° C. The supernatant is discarded, and the plates are washed five times with tap water and air dried. Sulforhodamine B (SRB) solution (100 μl) at 0.4% (w/v) in 1% acetic acid is added to each well, and plates are incubated for 10 minutes at room temperature. After staining, unbound dye is removed by washing five times with 1% acetic acid and the plates are air dried. […] Using the seven absorbance measurements [time zero, (Tz), control growth, (C), and test growth in the presence of drug at the five concentration levels (Ti)], the percentage growth is calculated at each of the drug concentrations levels.
Three dose response parameters are calculated for each experimental agent. […] The drug concentration resulting in total growth inhibition (TGI) is calculated from Ti=Tz. […] Values are calculated for each of these three parameters if the level of activity is reached; however, if the effect is not reached or is exceeded, the value for that parameter is expressed as greater or less than the maximum or minimum concentration tested.

DU-145 = assay: NCI-60 screen, Prostate Cancer panel; type: cell-based; conditions: Homo sapiens, DU-145, 48 h, read-out: GI50 (log10GI50) (converted)
A498 = assay: NCI-60 screen, Renal Cancer panel; type: cell-based; conditions: Homo sapiens, A498, 48 h
MCF7 = assay: NCI-60 screen, Breast Cancer panel; type: cell-based; conditions: Homo sapiens, MCF7, 48 h
MDA-MB-231 (TNBC cells) = assay: Short term (72 h) cytotoxicity assay; type: cell-based; conditions: Homo sapiens; MDA-MB-231, 72 h cytotoxicity
U251 (Glioma) = assay: Short term (72 h) cytotoxicity assay; type: cell-based, human; conditions: Homo sapiens, U-251; U251, 72 h cytotoxicity
[1] = tested on: PC3 (AR− Prostate Cancer); assay: Short term (72 h) cytotoxicity assay; type: cell-based; conditions: Homo sapiens, PC3, 72 h cytotoxicity
[2] = tested on: unmodified MCF-7 human breast cancer cells; assay: LIF specificity assay, unmodified cells; type: cell-based; conditions: Homo sapiens, MCF7, cytotoxicity
[3] = tested on: various cancer cells lines; assay: Cytotoxicity assays in various cancer cell lines; type: cell-based; conditions: in words
Protocol: Briefly, 5×10^3 cells were seeded in 96-well plates and incubated with compounds (0.0001-10 μmol/L) or dimethyl sulfoxide (DMSO; 0.02% v/v) for 24, 48, and 72 hours at 37° C. and cell viability was measured using a Fluoroscan plate reader.

[4] = tested on: MDA-MB-231 (TNBC) Xenograft; assay: Tumor xenograft study, MDA-MB-231; type: in vivo, mice
Protocol: Uniform suspensions of human breast cancer MDA-MB-231 and human ovarian cancer IGROV1 cells (2×10^6) in 100 μL (0.02 carboxymethyl cellulose in phosphate buffered saline) were injected subcutaneously into the right and left flanks of 4- to 5-week-old female athymic nude mice (Charles River Laboratories). After 10 days, when the tumor […] reaches 100 mm^3, the mice were randomly allocated to 3 groups of each containing 6 animals. […] All drug was suspended in PBS followed by sonication (15 seconds with an intermittent interval of 5 seconds) for 1 minute. Tumors were allowed to reach palpability before drug intervention. Tumor size was measured every 3 days using digital Vernier Calipers and tumor volume was calculated using the ellipsoid formula [D×(d2)]/2, where D is the large diameter of the tumor and d represents the small diameter. On day 31, the mice were euthanized and tumors were harvested for protein and gene expression studies. […] FIG. 6B depicts a graph of tumor volume vs. time for the administration of EC300 at 2.5 mg/kg twice weekly in the MDA-MB-231 (TNBC) Xenograft. […] FIG. 7 depicts a graph of tumor volume vs. time for the administration of EC300 at 5 mg/kg 5 days per week in the IGROV1 (Ovarian) Xenograft. […] STAT3 phosphorylation is reduced in tumors that underwent treatment compared to control which is an indication of LIF downstream target.

[5] = read-out: GI50 (log10GI50) (converted)
[6] = read-out: LC50 (log10LC50) (converted)

For `C#CC(F)(F)[C@]1(O)CCC2C3CCC4=CC(=O)CCC4=C3C(c3ccc(C4CC4)cc3)C[C@@]21C` (stereo partly drawn) [EC330, 17α-(1,1-difluoro-2-propyn-1-yl)-17β-hydroxy-11β-[4-p-(cyclopropyl)phenyl]estra-4,9-dien-3-one], the GI50 (CCRF-CEM; [5]) was under 10 nM, the CC50 (CCRF-CEM; [6]) was under 10 nM and the GI50 (K-562; [5]) was 2190 nM. For the same molecule, the CC50 (K-562; [6]) was over 100000 nM, the GI50 (MOLT-4; [5]) was 1700 nM and the CC50 (MOLT-4; [6]) was over 100000 nM. For the same molecule, the GI50 (RPMI-8226; [5]) was 112 nM, the CC50 (RPMI-8226; [6]) was over 100000 nM and the GI50 (EKVX) was under 10 nM. The GI50 (HOP-62) was 14.1 nM, the GI50 (NCI-H522; [5]) was under 10 nM and the CC50 (NCI-H522; [6]) was under 10 nM. For the same molecule, the GI50 (SW-620; [5]) was 2510 nM, the CC50 (SW-620; [6]) was over 100000 nM and the GI50 (SF-295; [5]) was under 10 nM. For the same molecule, the CC50 (SF-295; [6]) was under 10 nM, the GI50 (MALME-3M; [5]) was under 10 nM and the CC50 (MALME-3M; [6]) was 81.3 nM. The GI50 (IGROV1) was under 10 nM, the GI50 (DU-145) was 1910 nM and the GI50 (A498; [5]) was 263 nM. It also gave a CC50 (A498; [6]) of 3890 nM, a GI50 (MCF7; [5]) of 1230 nM and a CC50 (MCF7; [6]) of over 100000 nM. It also gave an IC50 (MDA-MB-231 (TNBC cells)) of 34 nM, an IC50 (U251 (Glioma)) of 20 nM and an IC50 [1] of 30 nM. For the same molecule, the IC50 [2] was 250 nM, the “IC50's in cytotoxicity assays” value [3] was “low nanomolar” and the “apoptosis in xenograft tumors” value ([4]; MDA-MB-231 xenograft tumors, FIG. 9) was “induced apoptosis dose dependently”. For the same molecule, the tumor growth ([4]; human triple negative breast cancer (TNBC) model) was “significantly reduced” and the “STAT3 phosphorylation in tumors” value ([4]; treated vs. control, 'It is believed') was “reduced”.
